Measurements from patent US20130150350A1, “Derivatives of 1-Phenyl-1,5-Dihydro-Benzo[B] [1,4]Diazepine-2,4-Dione as Inhibitors of HIV Replication” (BOEHRINGER INGELHEIM INTERNATIONAL GMBH, priority 2010, published 2013).
Like-named read-outs stand apart in the source and are kept apart here.

Assays:
[1] = biological target: T1, HIV-1NL4-3 CA-NC protein (SEQ ID NO: 2) (Human immunodeficiency virus type 1 group M subtype B, UniProt P12493, G226D); test: Immobilized capsid assembly assay (CAA); assay type: biochemical
T1 construct: HIV-1NL4-3 CA-NC, Gag residues 133-432; initiator Met (start codon introduced by PCR primer) (N); made in house; host or cells: E. coli BL21(DE3), pET-11a
Description: (§1) SEQ ID NO: 1 is a nucleic acid of 900 base pairs encoding HIV-1NL4-3 CA-NC, Gag residues 133-432, having the CA G94D mutation (SEQ ID NO: 2). SEQ ID NO: 1, is transferred to pET-11a expression vector (Novagen™) by PCR amplification using primers that introduce an NdeI site and a start codon at the 5′-end and a BamHI site and a stop codon at the 3′-end. Resistance mutations in CA were identified by passage of the HIV-1 virus in the presence of compounds of the invention, namely V27A/I, K30R, S33G, V36T, T58I, G61E, G208A/R, E213G, K30R/T58I, K30R/G208R, V36T/G208R, S33G/T58I, S33G/G208R and T58I/G208R, all numbered with reference to SEQ ID NO: 2,. These resistance mutations may be introduced in the expression vector using the QuikChange® II Site-Directed Mutagenesis Kit (Stratagene) according to the manufacturer's instructions. SEQ ID NOS: 2 is expressed in the BL21(DE3) E. coli cells (Novagen™). Briefly, LB media is inoculated with overnight pre-cultures and grown at 37° C. until mid log-phase (Abs600 ˜0.6), protein expression is induced by addition of 0.5-1 mM isopropyl-β,D-thiogalactopyranoside (IPTG) and carried out for 4 to 6 hours at 30° C. Cells are harvested by centrifugation and pellets are stored at −80° C. until purification.
(§2) Purification of CA-NC (SEQ ID NO: 2) is as follows: 5 to 10 g of cell paste are lysed by sonication in 40 ml of Buffer A [20 mM Tris pH 7.5; 1 μM ZnCl2; 10 mM β-mercaptoethanol] supplemented with 0.5M NaCl and Complete EDTA-free® protease inhibitors tablets (Roche). Nucleic acids and cell debris are removed by adding 0.11 volumes of 0.2 M ammonium sulfate and an equivalent volume of 10% poly-(ethyleneimine) pH 8.0, stirring the sample for 20 minutes at 4° C., followed by centrifugation at 30 000×g for 20 minutes. SEQ ID NO: 2 is recovered from the supernatant by adding 0.35 volumes of saturated ammonium sulfate solution followed by centrifugation at 10 000×g for 15 minutes. The pellet is dissolved in 10 ml of Buffer A+0.1 M NaCl and dialyzed overnight in the same buffer but at 0.05 M NaCl (Dialysis Buffer). The sample is then cleared by centrifugation and passed on a 1-ml HiTrapTMSP HP column (GE Healthcare) pre-equilibrated with Dialysis Buffer. SEQ ID NO: 2 is eluted with Buffer A+0.5 M NaCl, fractions containing the protein are pooled; concentration determination is done by Abs280 using the calculated molar extinction coefficient (E=40220 M-1 cm-1).
Reacti-Bind Neutravidin Coated black 384-well plates (Pierce Cat#15402) are washed with 80 μl/well of Buffer A (50 mM Tris pH 8.0; 350 mM NaCl; 10 μM ZnSO4; 0.0025% CHAPS (w/v); 50 μg/ml bovine serum albumin (BSA); 1 mM DTT). Immobilization of a 5′-end biotin labeled (TG)25 oligonucleotide (Integrated DNA Technology Inc.) is carried out by adding 50 μl/well of a 25 nM solution of oligonucleotide in Buffer A+5 mg/ml of BSA (Sigma™) and incubating overnight. Unbound material is removed by two 80 μl/well washes with Buffer A. Assembly reactions are performed in 60 μl/well reactions comprising test compound, 100 nM of 5′-end fluorescein labeled (TG)25 oligonucleotide (Integrated DNA Technology Inc.) and 2 μM of CA-NC protein (SEQ ID NO: 2), using Buffer A+1% DMSO. Assembly reactions are incubated for 2 hours at room temperature and non-immobilized material is removed by two successive 80 μl/well washes with Buffer A. Finally, 80 μl/well of Buffer A+0.1% sodium dodecyl sulfate (SDS) is added and incubated for 15 minutes prior to quantification of captured fluorescence on a Victor2 plate reader (PerkinElmer Life Sciences) equipped with fluorescein excitation and emission filters using the standard manufacturer's settings for fluorescein fluorescence. The amount of captured fluorescence is considered to be proportional to the level of assembly. The IC50 values for each compound are generated by fitting inhibition curves from ten-point dilution series to the following equation: […]

[2] = biological target: T2, assembled HIV-1 capsid complexes (CA-NC protein, SEQ ID NO: 2) (Human immunodeficiency virus type 1 group M subtype B, UniProt P12493, G226D); test: Capsid disassembly assay (CDA); assay type: biochemical
T2 construct: HIV-1NL4-3 CA-NC, Gag residues 133-432; initiator Met (start codon introduced by PCR primer) (N); made in house; host or cells: E. coli BL21(DE3), pET-11a
Description: The GAG polyprotein is the major structural protein required for HIV viral particle assembly. During the maturation process, Gag is cleaved by the viral protease and releases its four major proteins, matrix (MA), capsid (CA), nucleocapside (NC) and p6, as well as two spacer peptides termed SP1 and SP2. This triggers profound morphological changes to the viral particle as CA will reassemble to form the viral core, a structure that is essential for viral infectivity.
as §1, §2
Reacti-Bind Neutravidin Coated black 384-well plates (Pierce Cat#15402) are washed with 80 μl/well of Buffer A (50 mM Tris pH 8.0; 350 mM NaCl; 10 μM ZnSO4; 0.0025% CHAPS (w/v); 50 μg/ml BSA; 1 mM DTT). Immobilization of a 5′-end biotin labeled (TG)25 oligonucleotide (Integrated DNA Technology Inc.) is carried out by adding 50 μl/well of a 25 nM solution of oligonucleotide in Buffer A+5 mg/ml BSA and incubating overnight. Unbound material is removed by two 80 μl/well washes with Buffer A. Assembly reactions are performed in 60 μl/well reactions comprising 100 nM of 5′-end fluorescein labeled (TG)25 oligonucleotide (Integrated DNA Technology Inc.) and 2 μM of CA-NC protein (SEQ ID NO: 2), using Buffer A. Assembly reactions are incubated for 2 hours at room temperature and non-immobilized material is removed by washing 80 μl/well with Buffer A. Test compounds, serially diluted in Buffer A+0.125% dimethyl sulfoxide (DMSO), are added to the wells (60 μl/well) and incubated at room temperature for 2 hours. […]

[3] = system: HIV-1 replication in C8166 LTRluc cells; test: C8166 HIV-1 luciferase assay; assay type: cell-based; settings: Human immunodeficiency virus 1, 72 h, inhibition of HIV-1 replication, moi 0.005, 3 days
Procedure: The assay used to measure inhibition of HIV replication is as described in WO 2004/050643, pages 73-75, herein incorporated by reference, with the following modifications:
Serial dilutions of HIV-1 inhibitors are prepared in complete media from DMSO stock solutions. Eleven serial dilutions of desired concentration are prepared in a 1 mL deep well titer plate (96 wells). The 12th well contains complete media with no inhibitor and serves as the positive control. All samples contain the same concentration of DMSO 0.1% DMSO). Inhibitor is added, to triplicate wells, of a 96 well tissue culture treated clear view black microtiter plate (Corning Costar catalogue #3904). The total volume per well is 200 μL of media containing the cells and inhibitor. The last row is reserved for uninfected C8166 LTRluc cells to serve as the background blank control and the first row is media alone.
Count C8166 LTRluc cells and place in a minimal volume of complete RPMI 1640 in a tissue culture flask (ex. 30×10^6 cells in 10 mL media/25 cm^2 flask). Infect cells with HIV-1 at a moi of 0.005. Incubate cells for 1.5 hours at 37° C. on a rotating rack in a 5% CO2 incubator. Resuspend cells in complete RPMI to give a final concentration of 25,000-cells/well. Add cells to wells of 96 well microtiter plate containing inhibitors. Add 25,000 uninfected C8166—LTRluc cells/well in 200 μL complete RPMI to last row for background control. Incubate cells at 37° C. in 5% CO2 incubator for 3 days.

[4] = concentration for 50% inhibition of capsid assembly, 2 μM CA-NC, 2 hours at room temperature, read-out: IC50 (μM) CAA
[5] = concentration for 50% disassembly of assembled complexes, 2 hours at room temperature, read-out: IC50 (μM) CDA

For `CCN1C(=O)C2(CCc3ccccc32)C(=O)N(c2ccccc2)c2cc(C(F)(F)F)ccc21` (racemic) [Compound 7001], the IC50 [1] was 0.73 µM, the IC50 [2] was 0.46 µM and the EC50 [3] was 1500 nM.
With `CCN1C(=O)/C(=C/NCCOC)C(=O)N(c2ccccc2)c2cc(Cl)ccc21` [Compound 1004] the IC50 [1, 4] was 0.47 µM, the IC50 [2, 5] was 0.38 µM and the EC50 [3] was 12700 nM.
For `COCCN/C=C1/C(=O)N(C)c2ccc(C(F)(F)F)cc2N(c2ccccc2)C1=O` [Compound 1011], the IC50 [1] was 0.89 µM, the IC50 [2] was 0.86 µM and the EC50 [3] was 12000 nM.
Work on `CCN1C(=O)C(c2ccccc2)C(=O)N(c2ccccc2)c2cc(C(F)(F)F)ccc21` (centres unmarked) [Compound 2002] yielded an IC50 [1] of 0.73 µM, an IC50 [2] of 0.48 µM and an EC50 [3] of 2600 nM.
Work on `CCN1C(=O)C(c2ccccc2)C(=O)N(c2cccs2)c2cc(C(F)(F)F)ccc21` (centres unmarked) [Compound 2003] yielded an IC50 [1] of 0.81 µM, an IC50 [2] of 0.39 µM and an EC50 [3] of 2500 nM.
`CN1C(=O)C(c2ccc(O)cc2)C(=O)N(c2ccccc2)c2cc(C(F)(F)F)ccc21` (centres unmarked) [Compound 2009] was tested, and the IC50 [1] was 0.91 µM, the IC50 [2] was 0.14 µM and the EC50 [3] was 900 nM.
`CCN1C(=O)C(c2ccc(CN3CCNCC3)cc2)C(=O)N(c2ccccc2)c2cc(C(F)(F)F)ccc21` (centres unmarked) [Compound 2018] gave an IC50 [1] of 0.52 µM, an IC50 [2] of 0.28 µM and an EC50 [3] of 800 nM.
Molecule `CCN1C(=O)C(c2ccc(-c3cccnc3)cc2)C(=O)N(c2ccccc2)c2cc(C(F)(F)F)ccc21` (centres unmarked) [Compound 2030] has an IC50 [1] of 0.39 µM, an IC50 [2] of 0.32 µM and an EC50 [3] of 400 nM.
Work on `CCN1C(=O)C(c2cccc(-c3cccnc3)c2O)C(=O)N(c2ccccc2)c2cc(C(F)(F)F)ccc21` (centres unmarked) [Compound 2035] yielded an IC50 [1] of 1.28 µM and an EC50 [3] of 5800 nM.
In the case of `CCCn1cc(-c2cc(C3C(=O)N(CC)c4ccc(C(F)(F)F)cc4N(c4ccccc4)C3=O)cc(OC)c2O)cn1` (centres unmarked) [Compound 2059], the IC50 [1] is reported as 0.45 µM, the IC50 [2] is reported as 0.16 µM and the EC50 [3] is reported as 70 nM.
Work on `CCN1C(=O)C(c2cccnc2)C(=O)N(c2ccccc2)c2cc(C(F)(F)F)ccc21` (centres unmarked) [Compound 2076] yielded an IC50 [1] of 1.6 µM and an EC50 [3] of 4100 nM.
`CCN1C(=O)N(c2ccccc2)C(=O)N(c2ccccc2)c2cc(C(F)(F)F)ccc21` [Compound 3011] gave an IC50 [1, 4] of 0.63 µM, an IC50 [2, 5] of 0.18 µM and an EC50 [3] of 600 nM.
With `CCN1C(=O)N(c2ccc(CO)cc2)C(=O)N(c2ccccc2)c2cc(C(F)(F)F)ccc21` [Compound 3027] the IC50 [2, 5] was 0.1 µM and the EC50 [3] was 700 nM.
With `CCN1C(=O)N(c2ccc(C(=O)O)cc2)C(=O)N(c2ccccc2)c2cc(C(F)(F)F)ccc21` [Compound 3034] the IC50 [2, 5] was 0.27 µM and the EC50 [3] was 2600 nM.
`CCN1C(=O)N(c2ccc(C(=O)NC[C@@H]3CCCN3CC)cc2)C(=O)N(c2ccccc2)c2cc(C(F)(F)F)ccc21` [Compound 3055] gave an IC50 [2, 5] of 0.13 µM and an EC50 [3] of 400 nM.
`CN1c2ccc(Cl)cc2N(c2ccccc2)C(=O)c2cn(C)nc21` [Compound 4002] gave an IC50 [1, 4] of 0.71 µM and an EC50 [3] of 6900 nM.
In the case of `CN1c2ccc(Cl)cc2N(c2ccccc2)C(=O)c2c[nH]nc21` [Compound 4007], the IC50 [1, 4] is reported as 0.31 µM and the EC50 [3] is reported as 7800 nM.
`CN1c2ccc(Cl)cc2N(c2ccccc2)C(=O)c2cn(Cc3ccncc3)nc21` [Compound 4032] was tested, and the IC50 [1, 4] was 0.55 µM and the EC50 [3] was 300 nM.
Work on `CCN1c2ccc(Cl)cc2N(c2ccccc2)C(=O)c2c1ncn2C` [Compound 5001] yielded an IC50 [1, 4] of 0.36 µM and an EC50 [3] of 1500 nM.
For `CN1c2ccc(C(F)(F)F)cc2N(c2ccccc2)C(=O)c2c1ncn2C` [Compound 5003], the IC50 [1, 4] was 0.26 µM and the EC50 [3] was 5500 nM.
In the case of `CN1c2cccc(F)c2N(c2ccccc2)C(=O)c2c1ncn2C` [Compound 5005], the IC50 [1, 4] is reported as 0.32 µM and the EC50 [3] is reported as 400 nM.
`COCCNCc1ccc(Cn2cnc3c2C(=O)N(c2ccccc2)c2cc(Cl)ccc2N3C)cc1` [Compound 5026] showed an IC50 [1, 4] of 0.17 µM and an EC50 [3] of 900 nM.
`CN1c2ccc(Cl)cc2N(c2ccccc2)C(=O)c2scnc21` [Compound 6001] was tested, and the IC50 [1, 4] was 1 µM and the EC50 [3] was 8100 nM.
`CCN1C(=O)C2(CCc3cc(-c4ccnn4C)ccc32)C(=O)N(c2ccccc2)c2cc(C(F)(F)F)ccc21` (centres unmarked) [Compound 7012] was tested, and the IC50 [2] was 0.2 µM and the EC50 [3] was 200 nM.
For `CCN1C(=O)C2(CCc3c2ccc(-c2cncnc2)c3OC)C(=O)N(c2ccccc2)c2cc(C(F)(F)F)ccc21` (centres unmarked) [Compound 7030], the IC50 [2] was 0.17 µM and the EC50 [3] was 600 nM.
`CCN1C(=O)C2(C=C(C)c3cc(O)ccc32)C(=O)N(c2ccccc2)c2cc(C(F)(F)F)ccc21` (centres unmarked) [Compound 7037] was tested, and the IC50 [2] was 0.3 µM and the EC50 [3] was 1000 nM.
